Data taken from patent US11008317B2, “Triazolopyridine inhibitors of myeloperoxidase and/or EPX” (priority 2016, dated 2021).

What was measured:
myeloperoxidase [1] = biological target: T1, myeloperoxidase (Homo sapiens, UniProt P05164); assay: MPO Peroxidation Assay (Amplex Red Assay); assay type: biochemical; settings: potency range class, read-out: Amplex Red Assay IC50 value
T1 sequence (P05164 49-745): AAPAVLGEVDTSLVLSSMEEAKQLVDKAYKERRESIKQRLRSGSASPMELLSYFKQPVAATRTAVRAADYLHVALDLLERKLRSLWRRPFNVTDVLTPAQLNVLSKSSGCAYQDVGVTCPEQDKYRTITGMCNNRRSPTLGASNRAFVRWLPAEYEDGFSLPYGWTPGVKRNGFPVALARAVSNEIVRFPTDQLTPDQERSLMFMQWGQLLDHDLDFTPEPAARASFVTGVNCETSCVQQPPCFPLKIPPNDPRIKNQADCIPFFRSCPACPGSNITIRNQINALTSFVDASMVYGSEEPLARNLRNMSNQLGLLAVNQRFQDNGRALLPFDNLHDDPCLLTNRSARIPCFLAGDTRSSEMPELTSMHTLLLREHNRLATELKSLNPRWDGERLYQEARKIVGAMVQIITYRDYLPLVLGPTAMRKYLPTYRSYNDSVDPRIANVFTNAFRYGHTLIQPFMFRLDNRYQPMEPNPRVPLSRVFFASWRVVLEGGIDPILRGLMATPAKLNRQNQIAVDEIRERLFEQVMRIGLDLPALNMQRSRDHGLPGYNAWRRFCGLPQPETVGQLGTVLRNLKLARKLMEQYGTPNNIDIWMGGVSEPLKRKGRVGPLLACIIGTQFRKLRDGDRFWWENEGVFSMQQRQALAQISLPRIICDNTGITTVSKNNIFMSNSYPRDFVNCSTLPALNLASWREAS

myeloperoxidase [2] = biological target: T1, myeloperoxidase; assay: MPO Chlorination Assay (APF Assay); assay type: biochemical; settings: potency range class, read-out: APF Assay IC50 value

| IC50 (myeloperoxidase [1]) | IC50 (myeloperoxidase [2]) | Compound |
| --- | --- | --- |
| 101 to 999 nM | 1 to 100 nM | Nc1cc(C(CCNCc2cccc3ccccc23)c2ccccc2)c2nn[nH]c2n1 (centres unmarked) [Example 17, 7-(3-((naphthalen-1-ylmethyl)amino)-1-phenylpropyl)-3H-[1,2,3]triazolo[4,5-b]pyridin-5-amine] |
| 101 to 999 nM | 1000 to 10000 nM | CC(C)(C)CNCCC(c1ccccc1)c1cc(N)nc2[nH]nnc12 (centres unmarked) [Example 20, 7-{3-[(2,2-dimethylpropyl)amino]-1-phenylpropyl}-3H-[1,2,3]triazolo[4,5-b]pyridin-5-amine] |
| 101 to 999 nM | 101 to 999 nM | Nc1cc(C(CCNC23CC4CC(CC(C4)C2)C3)c2ccccc2)c2nn[nH]c2n1 (centres unmarked) [Example 21, 7-{3-[(adamantan-1-yl)amino]-1-phenylpropyl}-3H-[1,2,3]triazolo[4,5-b]pyridin-5-amine] |
| 101 to 999 nM | 101 to 999 nM | Nc1cc(C(CCNCC23CC4CC(CC(C4)C2)C3)c2ccccc2)c2nn[nH]c2n1 (centres unmarked) [Example 22, 7-(3-{[(adamantan-1-yl)methyl]amino}-1-phenylpropyl)-3H-[1,2,3]triazolo[4,5-b] pyridin-5-amine] |
| 101 to 999 nM | 101 to 999 nM | Nc1cc(C(CCNCC2CCCCC2)c2ccccc2)c2nn[nH]c2n1 (centres unmarked) [Example 23, 7-{3-[(cyclohexylmethyl)amino]-1-phenylpropyl}-3H-[1,2,3]triazolo[4,5-b] pyridin-5-amine] |
| 101 to 999 nM | 1000 to 10000 nM | Nc1cc(C(CCNC(c2ccccc2)C(F)(F)F)c2ccccc2)c2nn[nH]c2n1 (centres unmarked) [Example 24, 7-{1-phenyl-3-[(2,2,2-trifluoro-1-phenylethyl)amino]propyl}-3H-[1,2,3]triazolo[4,5-b]pyridin-5-amine] |
| 101 to 999 nM | 1 to 100 nM | Nc1cc(C(CCNC2CCCc3ccccc32)c2ccccc2)c2nn[nH]c2n1 (centres unmarked) [Example 25, 7-{1-phenyl-3-[(1,2,3,4-tetrahydronaphthalen-1-yl)amino]propyl}-3H-[1,2,3] triazolo[4,5-b] pyridin-5-amine] |
| 101 to 999 nM | 101 to 999 nM | Cc1cccc(C)c1CNCCC(c1ccccc1)c1cc(N)nc2[nH]nnc12 (centres unmarked) [Example 27, 7-(3-{[(2,6-dimethylphenyl)methyl]amino}-1-phenylpropyl)-3H-[1,2,3]triazolo[4,5-b] pyridin-5-amine] |
| 1 to 100 nM | 1 to 100 nM | Nc1cc(C(CCNC2CCCc3ccccc32)c2ccccc2)c2nn[nH]c2n1 (centres unmarked) [Example 28, 7-{1-phenyl-3-[(1,2,3,4-tetrahydronaphthalen-1-yl)amino]propyl}-3H-[1,2,3]triazolo [4,5-b]pyridin-5-amine] |
| 1 to 100 nM | 1 to 100 nM | Nc1cc(C(CCNC2CCCc3ccccc32)c2ccccc2)c2nn[nH]c2n1 (centres unmarked) [Example 29, 7-{1-phenyl-3-[(1,2,3,4-tetrahydronaphthalen-1-yl)amino]propyl}-3H-[1,2,3]triazolo [4,5-b]pyridin-5-amine] |
| 101 to 999 nM | 101 to 999 nM | Nc1cc(C(Cc2ccccn2)c2ccccc2)c2nn[nH]c2n1 (centres unmarked) [Example 38, 7-(1-phenyl-2-(pyridin-2-yl)ethyl)-3H-[1,2,3]triazolo[4,5-b]pyridin-5-amine] |
| 101 to 999 nM | 1000 to 10000 nM | Nc1cc(C(CCNC(=O)c2ccccc2)c2ccccc2)c2nn[nH]c2n1 (centres unmarked) [Example 39, N-(3-(5-amino-3H-[1,2,3]triazolo[4,5-b]pyridin-7-yl)-3-phenylpropyl)benzamide] |
| 101 to 999 nM | 101 to 999 nM | Nc1cc(C(CCNC2Cc3ccccc3C2)c2ccccc2)c2nn[nH]c2n1 (centres unmarked) [Example 41, 7-{3-[(2,3-dihydro-1H-inden-2-yl)amino]-1-phenylpropyl}-3H-[1,2,3]triazolo[4,5-b]pyridin-5-amine] |
| 101 to 999 nM | 101 to 999 nM | Nc1cc(C(CCNC(Cc2ccccc2)c2ccccc2)c2ccccc2)c2nn[nH]c2n1 (centres unmarked) [Example 45, 7-{3-[(1,2-diphenylethyl)amino]-1-phenylpropyl}-3H-[1,2,3]triazolo[4,5-b] pyridin-5-amine] |
| 101 to 999 nM | 101 to 999 nM | Nc1cc(C(CCNC2c3ccccc3CC2c2ccccc2)c2ccccc2)c2nn[nH]c2n1 (centres unmarked) [Example 46, 7-{1-phenyl-3-[(2-phenyl-2,3-dihydro-1H-inden-1-yl)amino]propyl}-3H-[1,2,3]triazolo [4,5-b]pyridin-5-amine] |
| 1000 to 10000 nM | 101 to 999 nM | Nc1cc(C(CCNC(Cc2ccccc2)c2ccccc2)c2ccccc2)c2nn[nH]c2n1 (centres unmarked) [Example 47, 7-{3-[(1,2-diphenylethyl)amino]-1-phenylpropyl}-3H-[1,2,3]triazolo[4,5-b]pyridin-5-amine] |
| 101 to 999 nM | 1 to 100 nM | Nc1cc(C(CCNC(Cc2ccccc2)c2ccccc2)c2ccccc2)c2nn[nH]c2n1 (centres unmarked) [Example 48, 7-{3-[(1,2-diphenylethyl)amino]-1-phenylpropyl}-3H-[1,2,3]triazolo[4,5-b]pyridin-5-amine] |
| 101 to 999 nM | 101 to 999 nM | Nc1cc(C(CCNCc2cccc(C(F)(F)F)c2)c2ccccc2)c2nn[nH]c2n1 (centres unmarked) [Example 53, 7-[1-phenyl-3-({[3-(trifluoromethyl)phenyl]methyl}amino)propyl]-3H-[1,2,3]triazolo[4,5-b]pyridin-5-amine] |
| 101 to 999 nM | 101 to 999 nM | Nc1cc(C(CCNCc2ccc(C(F)(F)F)cc2)c2ccccc2)c2nn[nH]c2n1 (centres unmarked) [Example 54, 7-[1-phenyl-3-({[4-(trifluoromethyl)phenyl]methyl}amino)propyl]-3H-[1,2,3]triazolo[4,5-b]pyridin-5-amine] |
| 1000 to 10000 nM | 101 to 999 nM | Nc1cc(C(CCNC2c3ccccc3CC2c2ccccc2)c2ccccc2)c2nn[nH]c2n1 (centres unmarked) [Example 55, 7-{1-phenyl-3-[(2-phenyl-2,3-dihydro-1H-inden-1-yl)amino]propyl}-3H-[1,2,3] triazolo[4,5-b] pyridin-5-amine] |
| 101 to 999 nM | 1 to 100 nM | Nc1cc(C(CCNC2c3ccccc3CC2c2ccccc2)c2ccccc2)c2nn[nH]c2n1 (centres unmarked) [Example 56, 7-{1-phenyl-3-[(2-phenyl-2,3-dihydro-1H-inden-1-yl)amino]propyl}-3H-[1,2,3]triazolo[4,5-b] pyridin-5-amine] |
| 101 to 999 nM | 1 to 100 nM | Nc1cc(C(CCN[C@H]2CCc3ccc(F)cc32)c2ccccc2)c2nn[nH]c2n1 (stereo partly drawn) [Example 57, 7-(3-{[(1S)-6-fluoro-2,3-dihydro-1H-inden-1-yl]amino}-1-phenylpropyl)-3H-[1,2,3]triazolo[4,5-b]pyridin-5-amine] |
| 101 to 999 nM | 1 to 100 nM | Nc1cc(C(CCN[C@H]2CCc3cc(F)ccc32)c2ccccc2)c2nn[nH]c2n1 (stereo partly drawn) [Example 58, 7-(3-{[(1S)-5-fluoro-2,3-dihydro-1H-inden-1-yl]amino}-1-phenylpropyl)-3H-[1,2,3]triazolo[4,5-b]pyridin-5-amine] |
| 101 to 999 nM | 101 to 999 nM | COC(=O)c1cccc(CNCCC(c2ccccc2)c2cc(N)nc3[nH]nnc23)c1 (centres unmarked) [Example 59, methyl 3-{[(3-{5-amino-3H-[1,2,3]triazolo [4,5-b]pyridin-7-yl}-3-phenylpropyl)amino]methyl} benzoate] |
| 101 to 999 nM | 1 to 100 nM | Nc1cc(C(CCN[C@@H]2CCc3ccc(F)cc32)c2ccccc2)c2nn[nH]c2n1 (stereo partly drawn) [Example 60, 7-(3-{[(1R)-6-fluoro-2,3-dihydro-1H-inden-1-yl]amino}-1-phenylpropyl)-3H-[1,2,3]triazolo[4,5-b]pyridin-5-amine] |
